According to patent US8883801B2, “Substituted pyrazolo[1,5-a]pyrimidines as mTOR inhibitors” (Merck Sharp & Dohme Corp., priority 2010, dated 2014):
Read-outs that look alike come from different tables or passages of the source.

Key:
[1] = molecular target: human mTOR enzyme (Homo sapiens, UniProt P42345); assay: HTRF mTOR enzyme (kinase) assay; assay type: biochemical; details: 5 μM ATP, 0.2 μM GST-S6K, read-out: hMTOR IC50
[2] = test system: mTORC2 activity: phosphorylated AKT Ser473 (pAKT S473) in PC3 cells; assay: mTOR target engagement assay, immunofluorescent cell-based, mTORC2 readout; details: Homo sapiens, PC-3, 1.5 h, 90 min treatment
Method: The target engagement of mTOR kinase inhibitors was evaluated using an immunofluorescent cell-based assay. In this assay, inhibition of mTORC1 activity was measured by the reduction in the level of phosphorylated 4E-BP1Thr37/46 (p4E-BP1 Thr37/46), and inhibition of mTORC2 activity was measured by the reduction of phosphorylated AKTSer473 (pAKT S473).
PC3 cells (prostate tumor cell-line that contains a mutation in the tumor suppressor PTEN, that promotes the phosphorylation and activation of AKT and 4E-BP1) were used in the immunofluorescence assay. PC3 cells were seeded on 384 well plates (black clear bottom, Matrix #4332) overnight. PC3 cells were then treated with 40 μl of the serially diluted test compounds (in 5% fetal bovine serum, F12 medium containing 0.25% DMSO) for ninety minutes at 37° C. The test compound solution was removed, and the plates were washed gently two times with 25 μl phosphate buffered saline (PBS). The cells were fixed by adding 25 μl of Prefer reagent (from Anatech LTD, Cat#414, a glyoxal fixative for fixing proteins within a cell) for sixty minutes followed by three washes with PBS. 5% Goat serum in PBS/0.3% Triton was used to block non-specific binding (60 minutes).
The primary antibodies targeting pAKT S473 and p4E-BP1 Thr37/46 were diluted into PBS/0.3% Triton and incubated with the cells overnight at 4° C. The antibodies targeting pAKTS473 (Cat#4085, Cell signaling) and p4E-BP1 Thr37/46 (Cat#2855, Cell signaling) were used at a 1:100 dilution. Plates were washed three times with PBS/0.1% Tween 20 before adding the secondary antibody at a 1:200 dilution. (goat anti-rabbit containing a fluorescent label, Alexa Fluor 488, Cat#A11008, Invitrogen) in PBS/0.3% Triton for 60 minutes.
Finally, the plates were washed three times with PBS/0.1% Tween 20 and the fluorescent intensity was read using an Analyst HT from Molecular Devices. The fluorescent intensity values from the serially diluted compound treatment group were analyzed using the Xlfit 4 program ([…]) (Formula 205: Y=Bottom+(Top-Bottom)/(1+(IC50/X)^Hillslope) to generate the IC50 value. Where Top is the maximum signal without Compound (+DMSO only) and Bottom represents maximum inhibition. Y is the fluorescence at some compound concentration. The control used to determine the fluorescent intensities for 100% pAKT S473 or 100% phosphorylated p4E-BP1 Thr37/46 were measured from untreated wells that contained only DMSO, instead of test compound.

Chain of human mTOR enzyme (P42345 1360-2549 limits assumed): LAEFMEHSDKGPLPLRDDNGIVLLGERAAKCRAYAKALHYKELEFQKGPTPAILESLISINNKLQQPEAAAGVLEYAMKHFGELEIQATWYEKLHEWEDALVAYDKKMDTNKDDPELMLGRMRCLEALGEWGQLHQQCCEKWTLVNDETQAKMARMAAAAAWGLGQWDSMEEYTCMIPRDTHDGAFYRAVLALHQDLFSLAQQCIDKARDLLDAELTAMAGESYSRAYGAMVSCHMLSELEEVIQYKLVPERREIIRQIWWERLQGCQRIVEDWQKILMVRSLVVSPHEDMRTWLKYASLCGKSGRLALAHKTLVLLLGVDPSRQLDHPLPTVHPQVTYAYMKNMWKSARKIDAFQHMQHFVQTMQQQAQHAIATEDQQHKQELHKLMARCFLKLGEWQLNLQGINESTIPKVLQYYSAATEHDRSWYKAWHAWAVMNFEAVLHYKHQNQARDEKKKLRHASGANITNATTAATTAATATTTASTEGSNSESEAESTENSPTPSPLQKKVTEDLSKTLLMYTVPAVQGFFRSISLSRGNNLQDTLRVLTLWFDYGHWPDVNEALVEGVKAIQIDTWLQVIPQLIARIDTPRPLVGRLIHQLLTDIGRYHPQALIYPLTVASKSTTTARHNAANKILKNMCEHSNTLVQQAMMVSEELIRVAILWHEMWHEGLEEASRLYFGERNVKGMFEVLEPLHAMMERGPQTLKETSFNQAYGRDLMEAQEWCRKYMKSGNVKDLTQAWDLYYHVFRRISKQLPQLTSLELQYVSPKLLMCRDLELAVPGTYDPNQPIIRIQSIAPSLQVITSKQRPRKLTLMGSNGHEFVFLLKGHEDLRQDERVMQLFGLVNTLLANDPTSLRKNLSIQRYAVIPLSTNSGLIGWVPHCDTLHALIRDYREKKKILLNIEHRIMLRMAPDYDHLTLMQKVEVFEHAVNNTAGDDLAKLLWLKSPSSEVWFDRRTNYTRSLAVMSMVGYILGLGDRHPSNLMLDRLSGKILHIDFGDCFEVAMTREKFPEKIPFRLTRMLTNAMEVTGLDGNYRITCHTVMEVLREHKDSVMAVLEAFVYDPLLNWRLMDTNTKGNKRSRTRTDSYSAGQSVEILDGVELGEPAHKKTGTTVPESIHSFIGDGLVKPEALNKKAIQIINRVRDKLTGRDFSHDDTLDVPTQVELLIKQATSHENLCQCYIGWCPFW

Row | Compound | IC50 ([1]; rated class) [nM] | IC50 ([2]; rated class) [nM] | IC50 ([1]; numeric value) [nM] | IC50 ([2]; numeric value) [nM]
1 | Nc1c(Br)c([C@H]2CC[C@]3(CC2)NC(=O)NC3=O)nc2c(-c3ccc(-c4ccccc4)nc3)cnn12 [Compound 72, 8-(7-amino-6-bromo-3-(6-phenylpyridin-3-yl)pyrazolo[1,5-a]pyrimidin-5-yl)-1,3-diazaspiro[4.5]decane-2,4-dione] |  |  | 11.7 | 870
2 | N#CC1(O)CCC(c2nc3c(-c4ccc(-c5ccccc5)nc4)cnn3c(N)c2Br)CC1 (stereo not shown) [Compound 74, 4-(7-amino-6-bromo-3-(6-phenylpyridin-3-yl)pyrazolo[1,5-a]pyrimidin-5-yl)-1-hydroxycyclohexanecarbonitrile] | 1 to 100 | 2000 to 5000 |  | 
3 | COC1(C#N)CCC(c2nc3c(-c4ccc(-c5ccccc5)nc4)cnn3c(N)c2Br)CC1 (stereo not shown) [Compound 75, 4-(7-amino-6-bromo-3-(6-phenylpyridin-3-yl)pyrazolo[1,5-a]pyrimidin-5-yl)-1-methoxycyclohexane-carbonitrile] | 1 to 100 | 2000 to 5000 |  | 
4 | Nc1c(Br)c([C@H]2CC[C@](O)(CC(=O)O)CC2)nc2c(-c3ccc(-c4ccccc4)nc3)cnn12 [Compound 77, 2-((1S,4S)-4-(7-amino-6-bromo-3-(6-phenylpyridin-3-yl)pyrazolo[1,5-a]pyrimidin-5-yl)-1-hydroxycyclohexyl)-acetic acid] | 1 to 100 | 1000 to 2000 |  | 
5 | Nc1c(Br)c([C@H]2CC[C@@](O)(CC(=O)O)CC2)nc2c(-c3cnn(-c4ccccc4)c3)cnn12 [Compound 79, 2-((1R,4R)-4-(7-amino-6-bromo-3-(1-phenyl-1H-pyrazol-4-yl)pyrazolo[1,5-a]pyrimidin-5-yl)-1-hydroxycyclohexyl)-acetic acid] | 1 to 100 | 100 to 1000 |  | 
6 | COC1(CO)CCC(c2nc3c(-c4ccc(-c5ccccc5)nc4)cnn3c(N)c2Br)CC1 (stereo not shown) [Compound 82, (4-(7-amino-6-bromo-3-(6-phenylpyridin-3-yl)pyrazolo[1,5-a]pyrimidin-5-yl)-1-methoxycyclohexyl)methanol] | 1 to 100 | 100 to 1000 |  | 
7 | COCCOC1(CO)CCC(c2nc3c(-c4cnn(-c5ccccc5)c4)cnn3c(N)c2Br)CC1 (stereo not shown) [Compound 83, (4-(7-amino-6-bromo-3-(1-phenyl-1H-pyrazol-4-yl)pyrazolo[1,5-a]pyrimidin-5-yl)-1-(2-methoxyethoxy)-cyclohexyl)methanol] | 1 to 100 | 1000 to 2000 |  | 
8 | CO[C@]1(CO)CC[C@@H](c2nc3c(-c4ccc(-c5ccccc5)nc4)cnn3c(N)c2C(C)=O)CC1 [Compound 84, 1-(7-amino-5-((1R,4R)-4-(hydroxymethyl)-4-methoxycyclohexyl)-3-(6-phenylpyridin-3-yl)pyrazolo[1,5-a]pyrimidin-6-yl)ethanone] | 1 to 100 | 100 to 1000 |  | 
9 | CO[C@]1(CO)CC[C@H](c2nc3c(-c4ccc(-c5ccccc5)nc4)cnn3c(N)c2C(C)=O)CC1 [Compound 85, 1-(7-amino-5-((1S,4S)-4-(hydroxymethyl)-4-methoxycyclohexyl)-3-(6-phenylpyridin-3-yl)pyrazolo[1,5-a]pyrimidin-6-yl)ethanone] | 1 to 100 | 100 to 1000 |  | 
10 | COCCOC1(CO)CCC(c2nc3c(-c4ccc(-c5ccccc5)nc4)cnn3c(N)c2C(C)=O)CC1 (stereo not shown) [Compound 86, 1-(7-amino-5-(4-(hydroxymethyl)-4-(2-methoxyethoxy)-cyclohexyl)-3-(6-phenylpyridin-3-yl)pyrazolo[1,5-a]pyrimidin-6-yl)ethanone] | 1 to 100 | 100 to 1000 |  | 

More lines, now with the values ahead:

Row | IC50 ([1]; rated class) [nM] | IC50 ([2]; rated class) [nM] | IC50 ([1]; numeric value) [nM] | IC50 ([2]; numeric value) [nM] | Compound
11 | 1 to 100 | 100 to 1000 |  |  | COCCO[C@]1(C(=O)O)CC[C@@H](c2nc3c(-c4cnn(-c5ccccc5)c4)cnn3c(N)c2C(C)=O)CC1 [Compound 55, (1R,4R)-4-(6-acetyl-7-amino-3-(1-phenyl-1H-pyrazol-4-yl)pyrazolo[1,5-a]pyrimidin-5-yl)-1-(2-methoxyethoxy)cyclohexanecarboxylic acid]
12 | 1 to 100 | 5000 to 15000 |  |  | COCCO[C@]1(C(=O)O)CC[C@H](c2nc3c(-c4ccc(-c5ccccc5)nc4)cnn3c(N)c2C(C)=O)CC1 [Compound 56, (1S,4S)-4-(6-acetyl-7-amino-3-(6-phenylpyridin-3-yl)pyrazolo[1,5-a]pyrimidin-5-yl)-1-(2-methoxyethoxy) cyclohexanecarboxylic acid]
13 | 1 to 100 | 100 to 1000 |  |  | COCCO[C@]1(C(=O)O)CC[C@@H](c2nc3c(-c4ccc(-c5ccccc5)nc4)cnn3c(N)c2C(C)=O)CC1 [Compound 57, (1R,4R)-4-(6-acetyl-7-amino-3-(6-phenylpyridin-3-yl)pyrazolo[1,5-a]pyrimidin-5-yl)-1-(2-methoxyethoxy) cyclohexanecarboxylic acid]
14 | 1 to 100 | 100 to 1000 |  |  | CC(=O)c1c(N)n2ncc(-c3ccc(-c4ccccc4)nc3)c2nc1[C@H]1CC[C@@](OCCN2CCOCC2)(C(=O)O)CC1 [Compound 58, (1R,4R)-4-(6-acetyl-7-amino-3-(6-phenylpyridin-3-yl)pyrazolo[1,5-a]pyrimidin-5-yl)-1-(2-morpholinoethoxy) cyclohexanecarboxylic acid]
15 | 1 to 100 | 100 to 1000 |  |  | COCCO[C@]1(C(=O)O)CC[C@@H](c2nc3c(-c4ccc(-c5nccs5)nc4)cnn3c(N)c2C(C)=O)CC1 [Compound 60, (1R,4R)-4-(6-acetyl-7-amino-3-(6-(thiazol-2-yl)pyridin-3-yl)pyrazolo[1,5-a]pyrimidin-5-yl)-1-(2-methoxyethoxy) cyclohexanecarboxylic acid]
16 | 1 to 100 | 100 to 1000 |  |  | COCCO[C@]1(C(=O)O)CC[C@@H](c2nc3c(-c4ccc(-c5cscn5)nc4)cnn3c(N)c2C(C)=O)CC1 [Compound 62, (1R,4R)-4-(6-acetyl-7-amino-3-(6-(thiazol-4-yl)pyridin-3-yl)pyrazolo[1,5-a]pyrimidin-5-yl)-1-(2-methoxyethoxy) cyclohexanecarboxylic acid]
17 | 1 to 100 | 1000 to 2000 |  |  | COCCO[C@]1(C(=O)O)CC[C@@H](c2nc3c(-c4ccc(-c5ccccc5)nc4)cnn3c(N)c2SC)CC1 [Compound 63, (1R,4R)-4-(7-amino-6-(methylthio)-3-(6-phenylpyridin-3-yl)pyrazolo[1,5-a]pyrimidin-5-yl)-1-(2-methoxyethoxy)cyclohexanecarboxylic acid]
18 | 1 to 100 | 1000 to 2000 |  |  | Nc1c(Br)c([C@H]2CC[C@@](OCCN3CCOCC3)(C(=O)O)CC2)nc2c(-c3ccc(-c4ccccc4)nc3)cnn12 [Compound 65, (1R,4R)-4-(7-amino-6-bromo-3-(6-phenylpyridin-3-yl)pyrazolo[1,5-a]pyrimidin-5-yl)-1-(2-morpholinoethoxy) cyclohexanecarboxylic acid]
19 | 1 to 100 | 1000 to 2000 |  |  | Nc1c(Br)c([C@H]2CC[C@](OCCN3CCOCC3)(C(=O)O)CC2)nc2c(-c3ccc(-c4ccccc4)nc3)cnn12 [Compound 66, (1S,4S)-4-(7-amino-6-bromo-3-(6-phenylpyridin-3-yl)pyrazolo[1,5-a]pyrimidin-5-yl)-1-(2-morpholinoethoxy) cyclohexanecarboxylic acid]
20 | 1 to 100 | 5000 to 15000 |  |  | Nc1c(Br)c(C2CCC(N)(C(=O)O)CC2)nc2c(-c3ccc(-c4ccccc4)nc3)cnn12 (stereo not shown) [Compound 73, 1-amino-4-(7-amino-6-bromo-3-(6-phenylpyridin-3-yl)pyrazolo[1,5-a]pyrimidin-5-yl)cyclohexanecarboxylic acid]
